The values that follow come from patent US20250250303A1 (THE TRUSTEES OF COLUMBIA UNIVERSITY IN THE CITY OF NEW YORK, priority 2022, published 2025).

Bridge positions count the residues as written; N and C are the ends. Ends that are not written are not given here.

For one experiment, the system named is C2C12 cells. The experiment can be described thus: MTT assay in C2C12 cells. Type of experiment: cell-based. As to the method:
To examine the function of […] on cell viability and growth, an MTT assay was performed in C2C12 cells.
On the technique in general: Tetrazolium assays rely on reduction of a dye to a coloured formazan, in cell work by metabolically active cells.

For the next experiment, the target named is T1, IR wild-type (WT) (Homo sapiens, UniProt P06213).
T1 construct: expressed in transfected cells; host or cells: 293 FT cells
T1 sequence (P06213 28-1370 isoform P06213-2 limits assumed): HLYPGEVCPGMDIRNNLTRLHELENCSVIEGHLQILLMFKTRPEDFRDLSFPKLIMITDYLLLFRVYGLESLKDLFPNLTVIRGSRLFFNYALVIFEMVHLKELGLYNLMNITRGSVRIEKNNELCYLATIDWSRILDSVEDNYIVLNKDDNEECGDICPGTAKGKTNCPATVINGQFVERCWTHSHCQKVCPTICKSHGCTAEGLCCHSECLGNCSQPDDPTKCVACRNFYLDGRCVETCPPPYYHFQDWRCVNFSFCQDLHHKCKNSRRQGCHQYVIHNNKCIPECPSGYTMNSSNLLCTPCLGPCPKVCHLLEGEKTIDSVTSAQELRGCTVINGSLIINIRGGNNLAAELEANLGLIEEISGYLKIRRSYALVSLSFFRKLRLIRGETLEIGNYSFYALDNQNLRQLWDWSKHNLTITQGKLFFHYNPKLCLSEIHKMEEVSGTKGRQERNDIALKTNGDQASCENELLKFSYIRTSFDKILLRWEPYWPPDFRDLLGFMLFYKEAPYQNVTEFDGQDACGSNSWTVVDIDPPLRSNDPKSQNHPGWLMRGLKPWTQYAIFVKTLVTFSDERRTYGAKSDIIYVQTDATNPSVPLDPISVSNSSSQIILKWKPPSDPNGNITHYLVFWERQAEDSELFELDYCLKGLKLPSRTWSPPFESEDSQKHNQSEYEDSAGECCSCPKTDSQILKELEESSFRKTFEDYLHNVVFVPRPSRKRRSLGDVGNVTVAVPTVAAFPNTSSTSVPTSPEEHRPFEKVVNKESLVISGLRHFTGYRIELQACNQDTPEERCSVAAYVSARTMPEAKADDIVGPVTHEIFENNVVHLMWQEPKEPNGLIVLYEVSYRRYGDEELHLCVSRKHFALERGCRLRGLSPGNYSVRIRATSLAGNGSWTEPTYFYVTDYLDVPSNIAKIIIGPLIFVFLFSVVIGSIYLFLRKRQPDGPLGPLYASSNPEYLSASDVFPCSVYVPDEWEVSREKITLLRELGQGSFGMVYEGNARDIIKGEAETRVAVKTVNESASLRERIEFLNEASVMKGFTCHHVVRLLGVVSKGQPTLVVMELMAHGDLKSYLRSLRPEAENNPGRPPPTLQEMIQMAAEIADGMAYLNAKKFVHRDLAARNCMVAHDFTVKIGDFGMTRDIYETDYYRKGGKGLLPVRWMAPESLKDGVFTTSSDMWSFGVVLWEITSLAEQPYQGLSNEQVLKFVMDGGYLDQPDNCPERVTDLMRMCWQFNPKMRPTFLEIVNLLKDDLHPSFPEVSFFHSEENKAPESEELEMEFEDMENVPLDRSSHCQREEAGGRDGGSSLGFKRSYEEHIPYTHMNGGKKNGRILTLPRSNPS
T1 sequence (P06213 763-1382 partner limits assumed): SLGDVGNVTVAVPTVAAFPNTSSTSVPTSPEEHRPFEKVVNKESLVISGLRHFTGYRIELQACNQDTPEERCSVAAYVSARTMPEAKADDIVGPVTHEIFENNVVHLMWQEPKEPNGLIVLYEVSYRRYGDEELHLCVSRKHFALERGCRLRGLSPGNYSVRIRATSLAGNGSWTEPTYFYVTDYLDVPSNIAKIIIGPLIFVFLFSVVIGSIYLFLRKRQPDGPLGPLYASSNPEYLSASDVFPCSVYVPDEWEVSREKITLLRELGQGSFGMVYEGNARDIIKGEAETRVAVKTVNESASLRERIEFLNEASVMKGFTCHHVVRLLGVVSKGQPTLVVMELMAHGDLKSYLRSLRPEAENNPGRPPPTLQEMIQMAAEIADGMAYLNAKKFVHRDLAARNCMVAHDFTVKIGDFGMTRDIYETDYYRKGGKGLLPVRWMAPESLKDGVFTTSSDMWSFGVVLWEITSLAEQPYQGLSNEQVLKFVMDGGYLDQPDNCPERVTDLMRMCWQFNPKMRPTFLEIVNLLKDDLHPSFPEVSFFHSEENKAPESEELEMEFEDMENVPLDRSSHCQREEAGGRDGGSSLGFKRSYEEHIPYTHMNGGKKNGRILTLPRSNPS
The experiment can be described thus: IR activation (auto-phosphorylation) assay in 293 FT cells expressing IR WT. Format: cell-based. As to conditions: 293 FT cells expressing IR WT; 10 nM for 10 min. As to the method: The insulin receptor signaling assay was performed as described earlier with some modifications. For the activation assay, the short isoform of human IR in pCS2-MYC was used as described previously. Plasmid transfections into 293 FT cells were performed with Lipofectamin™ 2000 (Invitrogen).
(§1) The cells were incubated with the lysis buffer B [50 mM Hepes pH 7.4, 150 mM NaCl, 10% Glycerol, 1% Triton X-100, 1 mM EDTA, 100 mM sodium fluoride, 2 mM sodium orthovanadate, 20 mM sodium pyrophosphate, 0.5 mM dithiothreitol (DTT), 2 mM phenylmethylsulfonyl fluoride (PMSF)] supplemented with complete Protease Inhibitor Cocktail (Roche), PhosSTOP (Sigma), and 25 U/ml turbo nuclease (Accelagen) on ice for 1 hr. After centrifuge at 20,817 g at 4° C. for 10 min, the concentrations of cell lysate were measured using Micro BCA Protein Assay Kit (Thermo Scientific). About 50-60 μg total proteins were analyzed by SDS-PAGE and quantitative Western blotting. The following antibodies were purchased from commercial sources: Anti-IR-pY1150/1151 (WB, 1:1000; 19H6; labeled as pY IR, Cat. #3024), anti-AKT (WB, 1:1000; 40D4, Cat. #2920), anti-pS473 AKT (WB, 1:1000; D9E, Cat. #4060), anti-ERK1/2 (WB, 1:1000; L34F12, Cat. #4696), anti-pERK1/2 (WB, […]; 197G2, Cat. #4377), anti-IRS1-pS616 (WB, 1:1000; C15H5, Cell Signaling, Cat. #3203); anti-IRS1 (WB, 1:1000; A301-158A, Bethyl Laboratory); anti-IR (WB, 1:500, CT-3, Santa Cruz; labeled as IR for primary hepatocytes and MEFs, Cat. #sc-57342); anti-IR (WB, 1:1000; EPR23566-103; labeled as IR for FIG. 31, ab278100, Abcam); anti-Myc (WB, 1:2000; 9E10, Cat. #11667149001, Roche; labeled as IR for 293 FT cells). For quantitative western blots, anti-rabbit immunoglobulin G (IgG) (H+L) (WB, 1:5000; Dylight 800 conjugates, Cat. #5151) and anti-mouse IgG (H+L) (WB, 1:5000; Dylight 680 conjugates, Cat. #5470) (Cell Signaling) were used as secondary antibodies. The membranes were scanned with the Odyssey Infrared Imaging System (Li—COR, Lincoln, NE).

The test system of experiment [1] is IR signaling. The experiment can be described thus: IR signaling in primary mouse hepatocytes. Type of experiment: cell-based. As to the method: Primary hepatocytes were isolated from 2-month-old male mice with a standard two-step collagenase perfusion procedure as described earlier with some modifications. […] After 1-2 sec upon appearance of white spots in the liver, the portal vein was cut with scissors to wash out blood, and then the liver was perfused with 30 ml of Liver Digest Medium (Thermo Scientific, Cat. #17703034). Dissected liver was gently washed with low glucose DMEM and transferred to sterile culture dish containing 15 ml Liver Digest Medium. The isolated liver cells were filtered through the 70 μm cell strainer into a 50 ml tube. After centrifuge at 50 g for 5 min at 4° C., cells were washed with cold low glucose DMEM three times. […] After 2 hr., the medium was changed to serum free low-glucose DMEM.
as §1

Another experiment in a line: Insulin tolerance test. Format: in vivo, mice. The conditions noted are these: intraperitoneal; for blood glucose levels in ITT: FIGS. 10A, 8F, 8G; for blood glucose in insulin tolerance assays: FIGS. 12B, 12C. As to the method:
Insulin tolerance tests were performed as described previously with some modification. Briefly, 2-3 months old male mice were fasted for 2 hr. and their blood glucose levels (T=0) were measured with tail bleeding using a glucometer (AlphaTRAK). After then, mice were injected intraperitoneally with Humulin (6 nmol/kg body weight), S597 (9 nmol/kg), S597-S20D (9 nmol/kg), S597-W6A (9 nmol/kg), S597-F27A (9 nmol/kg), or S597-N20 (27 nmol/kg), and their blood glucose levels were measured at the indicated time points after injection.

The test system of experiment [2] is IR signaling. The experiment can be described thus: Insulin signaling in vivo (liver, skeletal muscle, WAT lysates, western blot). The arrangement: species or system mice. The conditions noted are these: WAT; compared to vehicle treated conditions. As to the method: 2-3 months old male mice were fasted overnight. […] Livers were removed at 3 min after injection. White adipose tissue and skeletal muscles were removed at 5 min and 7 min after injection, respectively. Tissues were mixed with the lysis buffer B supplemented with complete Protease Inhibitor Cocktail (Roche), PhosSTOP (Sigma), and 25 U/ml turbo nuclease (Accelagen), homogenized with FisherbrandTM Bead Mill homogenizer, and then incubated on ice for 1 hr. After centrifuge at 20,817 g at 4° C. for 30 min, the concentrations of cell lysate were measured using Micro BCA Protein Assay Kit (Thermo Scientific). The lysates were then analyzed by quantitative western blotting.
In general terms: A western blot detects proteins with antibodies after separation by electrophoresis.

The test system of a further experiment is SREBP1. The experiment can be described thus: Immunofluorescence assay for SREBP1 translocation in primary hepatocytes. Type of experiment: cell-based, mouse. As to conditions: 100 nM for 30 min. As to the method: Primary hepatocytes were as described in the primary hepatocyte isolation section. […] Cells were fixed with 4% paraformaldehyde for 10 min. The fixed cells were incubated with PBS for 30 min and 3% BSA in PBS with 0.1% Triton X-100 (0.1% PBST) for 1 hr., and then treated with anti-SREBP1 antibodies (20B12, Millipore, Cat. #MABS1987, 1:200) in 3% BSA in 0.1% PBST at 4° C. overnight. After being washed, cells were incubated with secondary antibodies (Alexa Fluor 488 goat anti-rabbit, Invitrogen, Cat. #A11008, 1:200) for 1 hr. Cells were washed and mounted on microscope slides in ProLong Gold Antifade reagent with DAPI (Invitrogen). Images were acquired as a series of 0.2 μm stacks with a Leica Thunder Imager (Leica Microsystems Inc.). Raw images were deconvolved using LAS X Software (Leica Microsystems Inc.). The nuclear edges and the nuclear SREBP1 signal were defined with Image J. Identical exposure times and magnifications were used for all comparative analyses.

Experiment [3] is described as follows: Chronic treatment by osmotic minipump. Type of experiment: in vivo, mice. The text has this:
2-month-old male mice were implanted with osmotic minipump releasing Humulin (0.2 U/day), S597 (0.3 U/day), or S597-S20D (0.3 U/day). […] Hepes, N=7; Humulin, N=8; S597, N=7; S597-S20D, N=4. […] Hepes, N=7; Humulin, N=8; S597, N=9; S597-S20D, N=4. Two-way ANOVA followed by Tukey's multiple comparisons test. […] Mean±SEM. Hepes, N=8; Humulin, N=7; S597, N=9; S597-S20D, N=5. […] Hepes, N=4; Humulin and S597 analogs, N=5. two-tailed Student's t-test. All graphs show Mean±SEM.
To examine the long-term effects of S597 in vivo, C57BL/6J WT mice were implanted with osmotic minipumps releasing either HEPES, Humulin, or mimetics. […] Consistent with previous work, chronic treatment of Humulin increased body weight (FIGS. 11E, 11F).

In experiment [4] the target is T2, full-length mouse insulin receptor, short isoform, D1122N Y962F (mouse, UniProt P15208 28-1372).
T2 construct: mature; Residue numbers are as printed; also called MmIR; IR
T2 sequence (P15208 28-1372 Y989F/D1149N limits assumed): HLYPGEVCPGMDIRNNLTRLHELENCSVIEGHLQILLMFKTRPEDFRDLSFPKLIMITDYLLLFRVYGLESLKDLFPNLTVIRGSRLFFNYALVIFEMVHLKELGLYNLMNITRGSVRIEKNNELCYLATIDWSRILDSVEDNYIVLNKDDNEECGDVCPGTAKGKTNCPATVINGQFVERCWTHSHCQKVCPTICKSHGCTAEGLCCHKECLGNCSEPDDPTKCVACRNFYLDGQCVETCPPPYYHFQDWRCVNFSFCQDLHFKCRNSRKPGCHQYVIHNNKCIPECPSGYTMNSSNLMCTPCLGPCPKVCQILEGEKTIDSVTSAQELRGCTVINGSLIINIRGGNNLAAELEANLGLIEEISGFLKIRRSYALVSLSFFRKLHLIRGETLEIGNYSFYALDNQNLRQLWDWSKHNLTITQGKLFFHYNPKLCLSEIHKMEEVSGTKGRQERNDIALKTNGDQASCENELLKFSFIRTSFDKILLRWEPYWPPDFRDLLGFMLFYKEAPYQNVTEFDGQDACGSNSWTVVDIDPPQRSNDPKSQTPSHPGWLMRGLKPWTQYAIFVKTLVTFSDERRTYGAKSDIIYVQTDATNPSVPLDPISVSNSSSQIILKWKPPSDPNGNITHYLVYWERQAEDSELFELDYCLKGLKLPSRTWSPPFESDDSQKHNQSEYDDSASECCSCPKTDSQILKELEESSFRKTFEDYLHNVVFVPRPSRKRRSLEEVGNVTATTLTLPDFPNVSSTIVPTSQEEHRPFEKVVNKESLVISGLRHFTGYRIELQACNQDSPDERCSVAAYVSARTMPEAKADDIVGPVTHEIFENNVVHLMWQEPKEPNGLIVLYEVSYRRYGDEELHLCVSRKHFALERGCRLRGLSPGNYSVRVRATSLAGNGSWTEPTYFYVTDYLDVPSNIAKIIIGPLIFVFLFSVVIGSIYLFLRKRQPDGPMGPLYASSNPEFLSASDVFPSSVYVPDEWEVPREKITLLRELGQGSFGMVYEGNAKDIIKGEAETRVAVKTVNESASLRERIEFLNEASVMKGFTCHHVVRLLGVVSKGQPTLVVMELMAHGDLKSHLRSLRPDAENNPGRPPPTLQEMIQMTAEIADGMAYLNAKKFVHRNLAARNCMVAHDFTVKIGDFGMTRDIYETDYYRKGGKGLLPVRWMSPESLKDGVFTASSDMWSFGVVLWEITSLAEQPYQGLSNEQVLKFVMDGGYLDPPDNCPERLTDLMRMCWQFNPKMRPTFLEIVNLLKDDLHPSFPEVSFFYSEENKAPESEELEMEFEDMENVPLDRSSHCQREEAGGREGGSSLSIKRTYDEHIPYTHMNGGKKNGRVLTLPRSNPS
The experiment can be described thus: cryo-EM of full-length IR with S597-N20. As to the method: (§2) The cryo-EM grid was prepared by applying 3 μl of the protein samples (6 mg/ml) to glow-discharged Quantifoil R1.2/1.3 300-mesh gold holey carbon grids (Quantifoil, Micro Tools GmbH, Germany). Grids were blotted for 4.0 seconds under 100% humidity at 4° C. before being plunged into the liquid ethane using a Mark IV Vitrobot (FEI). Micrographs were acquired on a Titan Krios microscope (FEI) operated at 300 kV with a K3 direct electron detector (Gatan), using a slit width of 20 eV on a GIF-Quantum energy filter. SerialEM 3.8 was used for the data collection. […] The defocus range was set from 1.6 μm to 2.6 μm. Each micrograph was dose-fractionated to 30 frames with a total dose of about 60 e⁻/Å².

Experiment [5] addresses T2, full-length mouse insulin receptor, …. The experiment can be described thus: cryo-EM of full-length IR with S597, 5.4 Å. As to the method:
as §2

As to insulin-like growth factor 1 [IGF1], the “cell viability and growth” value in the experiment on C2C12 cells was “significantly increased”.
For “S597-N20: N-terminal 20 residues of S597 comprising only component-2 and the linker (Ac-SLEEEWAQIECEVYGRGCPS; disulfide 11-18 (inferred))”, the “IR activation (auto-phosphorylation of IR, pY IR)” value (“IR activation” for short) with IR wild-type (WT) was “greatly reduced potency”. In the experiment on IR signaling [1], the pAKT result was “did not induce phosphorylation”, the pERK result is “did not induce phosphorylation” and the “pY IR” value is “did not induce phosphorylation”. Further, in “Insulin tolerance test”, the “blood glucose levels in ITT” value was “did not reduce” and the “blood glucose in insulin tolerance assays” value is given as “did not reduce glucose levels, but rather elevated them”.
On to “S597-W6A: S597-component-2 mutant, disrupts the IR FnIII-1/S597-component-2 interaction (Ac-SLEEEAAQIECEVYGRGCPSESFYDWFERQL; disulfide 11-18 (inferred))”, for which, in the experiment with IR wild-type (WT), the “IR activation” value is reported as “greatly reduced potency”. Further, in the experiment “Insulin tolerance test”, the “blood glucose levels in ITT” value was “did not reduce” and the “blood glucose in insulin tolerance assays” value was “did not reduce glucose levels, but rather elevated them”.
In the case of insulin, in the experiment with IR signaling [2], the pAKT level entry is “significantly increased” and the pERK level entry is “neither insulin nor S597 had a statistically significant effect”. In addition, in the experiment with IR signaling [1], the pAKT entry is “increased”, the pERK entry was “increased” and the “pY IR” value is “increased”. Further, in the experiment on SREBP1, the “nuclear translocation of SREBP1” value is “stimulated to the same level”. Further, the “cell viability and growth” value with C2C12 cells was “significantly increased”.
As for “Humulin: Humulin (human insulin), Eli Lilly”, in the experiment “Insulin tolerance test”, the “blood glucose levels in ITT” value is “lowered”. Further, the body weight gain result in experiment [3] is “increased”. Also, the “C-peptide (insulin secretion)” value in experiment [3] (serum, 4 h fasted mice) is “decreased”.
“S597-F27A: S597-component-1 mutant, interrupts the IR L1/S597-component-1 interaction (Ac-SLEEEWAQIECEVYGRGCPSESFYDWAERQL; disulfide 11-18 (inferred))”: the “IR activation” value with IR wild-type (WT) is reported as “greatly reduced potency”. Also, in the experiment “Insulin tolerance test”, the “blood glucose levels in ITT” value is “did not reduce” and the “blood glucose in insulin tolerance assays” value is recorded as “did not reduce glucose levels, but rather elevated them”.

B1: S597-N20 (peptide)
peptide: Ac-SLEEEWAQIECEVYGRGCPS
modifications: disulfide 11-18 (inferred)
notes: also called S597-component-2; S597-component-2 alone
B1: in [4], the binding result is recorded as “binds”.

B2: S597 (peptide)
peptide: Ac-SLEEEWAQIECEVYGRGCPSESFYDWFERQL
modifications: disulfide 11-18 (inferred)
notes: Component-2 (N-terminal helix), linker, component-1 (C-terminal helix); also called full-length S597
As to B2, in experiment [5], the “stoichiometry (S597: IR dimer)” value was 2 S597 per IR dimer.
